US12016918B2, “Peptide-containing adjuvant compounds having peg spacers” (UNIVERSITEIT LEIDEN, priority 2017, dated 2024)
Non-standard residues stand in square brackets, D forms with d. *: point of attachment. O(CH2CH2O)3CH2C(O) = O=C(COCCOCCOCCO)*; AEEEA = NCCOCCOCCOCC(=O)O; Carbamoyl = NC(=O)*; Cy5 = Cy5 label

Legend:
Type in all cases: cell-based
[1] = molecular target: T1, human TLR2 (Homo sapiens, UniProt O60603); assay: HEK293-TLR2 activation assay (IL-8 production); conditions: for activation of TLR2 HEK cells (human IL-8 production via TLR-2): HEK TLR-2 cells incubated with titrated amounts of compound, IL-8 in supernatant by ELISA, FIG. 2A/3A; for TLR2-mediated bio-activity compared to reference ligands: compared to compound 1 and 5 and chirally pure Pam3CSK4 (Pam-R), HEK TLR2 cells and human DC, FIG. 2
T1 construct: host or cells: HEK293
Method: (a) HEK TLR-2 cells were incubated with titrated amounts of test compounds or controls for 24 h;
The HEK-TLR2 reporter cell line and HEK293 cells stably transfected with human TLR2 were obtained from Invivogen, Toulouse, France. HEK-TLR2 cells were cultured in complete IMDM medium, supplemented with 500 μg/mL Geneticin. Test compounds were titrated in a flat-bottom 96-well plate (Corning, Amsterdam, The Netherlands) in complete IMDM medium to which 20 000 HEK-TLR2 cells per well were added. After 48 h of incubation at 37° C., the supernatant was taken from the wells for ELISA analysis (BioLegend, San Diego, CA) to determine the amount of IL-8 that was produced as a measure for TLR2-mediated activation.

[2] = tested on: human monocyte-derived dendritic cells; assay: Activation of human dendritic cells (IL-12 cytokine secretion by ELISA); conditions: human DCs stimulated with titrated amounts of compound; IL-12 by ELISA; FIG. 2B/3B
Excerpt: One representative from three independent experiments is shown (error bars represent SD);
DCs were stimulated with titrated amounts of test compounds or controls. Supernatants were harvested and analyzed for IL-12 cytokine secretion by ELISA as in FIG. 2B;

[3] = tested on: human moDC; assay: Uptake by human moDC (confocal laser scanning microscopy); conditions: 1 μM, 15 min incubation; Cy5-labeled conjugate; endo-lysosomal compartments; FIG. 4A
Method: The cells were incubated for 15 min with compound 10 (1 μM). The uptake and localization of the compounds were analyzed with confocal laser scanning microscopy. The images are representative for multiple cells in at least 3 experiments; and […]

[4] = tested on: mouse D1-cells; assay: Uptake by mouse D1-cells (confocal laser scanning microscopy); conditions: 1 μM, 15 min incubation; Cy5-labeled conjugate; endo-lysosomal compartments; FIG. 4B
Method: The cells were incubated for 15 min with compound 10 (1 μM). The uptake and localization of the compounds were analyzed with confocal laser scanning microscopy. The images are representative for multiple cells in at least 3 experiments.

T1 sequence (O60603 21-784): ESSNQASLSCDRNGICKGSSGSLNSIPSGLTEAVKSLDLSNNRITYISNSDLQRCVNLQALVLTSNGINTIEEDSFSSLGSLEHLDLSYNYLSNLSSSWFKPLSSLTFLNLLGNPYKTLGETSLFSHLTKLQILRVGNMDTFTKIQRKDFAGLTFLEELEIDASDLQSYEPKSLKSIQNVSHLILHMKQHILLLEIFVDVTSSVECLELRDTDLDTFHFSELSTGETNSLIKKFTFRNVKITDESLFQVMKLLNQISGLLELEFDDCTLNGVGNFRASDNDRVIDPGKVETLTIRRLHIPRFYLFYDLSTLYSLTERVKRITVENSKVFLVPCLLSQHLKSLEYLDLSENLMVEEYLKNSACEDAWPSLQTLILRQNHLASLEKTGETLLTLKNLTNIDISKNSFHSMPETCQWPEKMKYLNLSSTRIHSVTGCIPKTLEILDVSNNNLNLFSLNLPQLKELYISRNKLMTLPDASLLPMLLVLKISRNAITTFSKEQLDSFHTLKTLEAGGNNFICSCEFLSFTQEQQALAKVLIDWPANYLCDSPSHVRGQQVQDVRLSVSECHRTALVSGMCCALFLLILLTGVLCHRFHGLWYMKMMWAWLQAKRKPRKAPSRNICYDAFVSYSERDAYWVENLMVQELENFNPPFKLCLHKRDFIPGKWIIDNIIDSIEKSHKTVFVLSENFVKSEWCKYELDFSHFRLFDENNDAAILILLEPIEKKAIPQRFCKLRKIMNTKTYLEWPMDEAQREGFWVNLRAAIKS

activation of TLR2 HEK cells (human IL-8 production via TLR-2) [1] | TLR2-mediated bio-activity compared to reference ligands [1] | Molecule | activation of human monocyte-derived dendritic cells (IL-12 secretion) [2] | dendritic cell uptake, human [3] | dendritic cell uptake, murine [4]
excellent capacity to activate | improved | CCCCCCCCCCCCCCCC(=O)OCCSCC[C@H](NC(N)=O)C(=O)N[C@@H](CO)C(=O)OCCOCCOCCOCC(=O)O [Compound 6, (14S,17S)-14-(hydroxymethyl)-13,16,24-trioxo-17-ureido-3,6,9,12,23-pentaoxa-20-thia-15-azanonatriacontanoic acid] | excellent capacity to activate | – | –
excellent capacity to activate | improved | CCCCCCCCCCCCCCCC(=O)OCCSCC[C@H](NC(N)=O)C(=O)N[C@@H](CO)C(=O)NCCOCCOCCOCC(=O)O [Compound 7, (14S,17 S)-14-(hydroxymethyl)-13,16,24-trioxo-17-ureido-3,6,9,23-tetraoxa-20-thia-12,15-diazanonatriacontanoic acid] | excellent capacity to activate | – | –
intact bio-activity | – | NH2C(O)NH-Cys(EtOC(O)C15H31)-Ser(OH)—NH(CH2CH2O)3CH2C(O)NH-DEVSGLEQLESIINFEK(^Cy5)L-OH ({Carbamoyl-Cys(EtOC(O)C15H31)}-S[AEEEA]DEVSGLEQLESIINFEK(Cy5)L-OH) [Compound 11, Cy5 fluorophore-labeled conjugate from 28] | intact bio-activity | – | –
intact bio-activity | – | NH2C(O)NH-Cys(EtOC(O)C15H31)-Ser(OH)—NH(CH2CH2O)3CH2C(O)NH-DEVSGLEQLESIINFEKL-OH ({Carbamoyl-Cys(EtOC(O)C15H31)}-S[AEEEA]DEVSGLEQLESIINFEKL-OH) [Compound 9] | intact bio-activity | – | –
intact bio-activity | – | NH2C(O)NH-Cys(EtOC(O)C15H31)-Ser(OH)—O(CH2CH2O)3CH2C(O)NH-DEVSGLEQLESIINFEK(^Cy5)L-OH ({Carbamoyl-Cys(EtOC(O)C15H31)-Ser-O(CH2CH2O)3CH2C(O)}-DEVSGLEQLESIINFEK(Cy5)L-OH) [Compound 10, Cy5 fluorophore-labeled conjugate from 27] | intact bio-activity | efficient engulfment | efficient engulfment
intact bio-activity | – | NH2C(O)NH-Cys(EtOC(O)C15H31)-Ser(OH)—O(CH2CH2O)3CH2C(O)NH-DEVSGLEQLESIINFEKL-OH ({Carbamoyl-Cys(EtOC(O)C15H31)-Ser-O(CH2CH2O)3CH2C(O)}-DEVSGLEQLESIINFEKL-OH) [Compound 8] | intact bio-activity | – | –
